Measurements taken from patent publication US8492404B2, “Bis-aryl amide compounds and methods of use” (Amgen Inc., priority 2005, dated 2013).
pIC50: −log10 of the molar value.

biological target: T1, c-kit kinase enzyme (Homo sapiens, UniProt P10721); test: cKIT-Homogeneous Time Resolved Fluorescent (HTRF) Kinase Assay; format: biochemical; settings: read-out: average IC50 value for the inhibition of the c-kit kinase enzyme
T1 construct: cKIT (6.25 μM) (catalytic domain, N-terminal GST tagged, unphosphorylated)
Experimental: cKIT-Homogeneous Time Resolved Fluorescent (HTRF) Kinase Assay:
The purpose of this assay is to measure the inhibition of cKIT enzyme activity (autophosphorylation and phosphorylation of substrate) by small molecule test compounds. The cKIT HTRF assay begins with cKIT-catalyzed phosphorylation of biotinylated peptide Her-2 (N-[…]-C) in the presence of ATP. The cKIT enzyme reaction is comprised of 1 μL of compound in 100% DMSO, 15 μL of 2× substrate mix (50 μM ATP and 2 μM biotinylated Her-2) and 15 μL of 2× cKIT (6.25 μM) (catalytic domain, N-terminal GST tagged, unphosphorylated) in 4 mM DTT all diluted in enzyme buffer (25 mM HEPES pH 7.5, 12.5 mM NaCl, 50 mM MgCl, 0.05% BSA). The reaction incubates for 90 min at room temperature. One-hundred and sixty microliters of detection mixture containing 0.47 μg/mL steptavidin allophycocyanin and 29.7 pM europylated anti-phosphotyrosine Ab (PT66, Perkin Elmer) in HTRF buffer (100 mM Hepes pH 7.5, 100 mM NaCl, 0.1% BSA, 0.05% Tween 20) is then added to stop the reaction by diluting out the enzyme as well as to enable quantitation of phosphorylated Her-2. After 3 h at room temperature, the detection reaction is read in a Packard Discovery™ (model BD1000) plate reader. The wells are excited with coherent […] light and the ratio of delayed ([…] post excitation) emissions at […] (native europium fluorescence) and 665 nm (europium fluorescence transferred to allophycocyanin—an index of substrate phosphorylation) is determined. The proportion of substrate phosphorylated in the kinase reaction in the presence of compound compared with that phosphorylated in the presence of DMSO vehicle alone (HI control) is calculated using the formula: % control (POC)=(cpd−average LO)/(average HI−average LO)*100. Data (consisting of POC and inhibitor concentration in μM) is fitted to a 4-parameter equation (y=A+((B−A)/(1+((x/C)^D))), where A is the minimum y (POC) value, B is the maximum y (POC), C is the x (cpd concentration) at the point of inflection and D is the slope factor) using a Levenburg-Marquardt non-linear regression algorithm.

T1 sequence (P10721 589-937 limits assumed): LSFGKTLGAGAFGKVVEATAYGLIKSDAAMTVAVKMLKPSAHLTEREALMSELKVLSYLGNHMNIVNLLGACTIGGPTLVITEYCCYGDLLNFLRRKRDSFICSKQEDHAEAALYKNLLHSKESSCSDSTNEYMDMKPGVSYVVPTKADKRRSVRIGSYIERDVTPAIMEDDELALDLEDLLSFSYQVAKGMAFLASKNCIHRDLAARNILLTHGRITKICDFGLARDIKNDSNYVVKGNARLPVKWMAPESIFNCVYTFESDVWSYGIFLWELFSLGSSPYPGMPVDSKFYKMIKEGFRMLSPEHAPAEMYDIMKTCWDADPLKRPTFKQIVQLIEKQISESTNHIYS

pIC50, ≥ 5.00:
Cc1ccc(NC(=O)c2csc(-c3cccs3)n2)cc1C(=O)Nc1cnc(Nc2ccc(N3CCN(C)CC3)cc2)nc1 [Example 141]
Cc1ccc(NC(=O)c2cc3ccccc3n2C)cc1C(=O)Nc1cnc(Nc2ccc(N3CCN(C)CC3)cc2)nc1 [Example 96, 1-methyl-N-(4-methyl-3-((2-(4-(4-methylpiperazin-1-yl)phenylamino)pyrimidin-5-yl)carbamoyl)phenyl)-1H-indole-2-carboxamide]
Cc1ccc(NC(=O)c2ccc3[nH]ccc3c2)cc1C(=O)Nc1cnc(N)nc1 [Example 110, N-(3-((2-aminopyrimidin-5-yl)carbamoyl)-4-methylphenyl)-1H-indole-5-carboxamide]
Cc1ccc(C(=O)NCCC2CCCCC2)cc1C(=O)Nc1ccc(N)nc1 [Example 182, N~3~-(6-amino-3-pyridinyl)-N~1~-(2-cyclohexylethyl)-4-methyl-1,3-benzenedicarboxamide]
Cc1ccc(NC(=O)c2cccc(C(F)(F)F)c2)cc1C(=O)Nc1cnc(N)nc1 [Example 1, N-(2-amino-5-pyrimidinyl)-2-methyl-5-(((3-(trifluoromethyl)phenyl)carbonyl)amino)benzamide]
Cc1ccc(NC(=O)c2cc(I)ccc2O)cc1C(=O)Nc1cnc(Nc2ccc(N3CCN(C)CC3)cc2)nc1 [Example 112, 2-hydroxy-5-iodo-N-(4-methyl-3-(((2-((4-(4-methyl-1-piperazinyl)phenyl)amino)-5-pyrimidinyl)amino)carbonyl)phenyl) benzamide]
Cc1ccc(NC(=O)c2cccc(C(F)(F)F)c2)cc1C(=O)Nc1cnc(NCCN2CCOCC2)nc1 [Example 2]
Cc1ccc(C(=O)NCCC2CCCC2)cc1C(=O)Nc1ccc(NC(=O)c2c[nH]cn2)nc1 [Example 206, N~1~-(2-cyclopentylethyl)-N~3~-(6-((1H-imidazol-4-ylcarbonyl)amino)-3-pyridinyl)-4-methyl-1,3-benzenedicarboxamide]
Cc1ccc(NC(=O)c2ccc3ncsc3c2)cc1C(=O)Nc1cnc(N)nc1 [Example 109, N-(3-((2-aminopyrimidin-5-yl)carbamoyl)-4-methylphenyl)benzo[d] thiazole-6-carboxamide]
Cc1ccc(NC(=O)Nc2cccc(C(F)(F)F)c2)cc1C(=O)Nc1cnc(N)nc1 [Example 90, N-(2-amino-5-pyrimidinyl)-2-methyl-5-((((3-(trifluoromethyl)phenyl)amino)carbonyl)amino)benzamide]
Cc1ccc(NC(=O)Nc2cccc(C(F)(F)F)c2)cc1C(=O)Nc1cncnc1 [Example 88, 1-(4-methyl-3-(pyrimidin-5-ylcarbamoyl)phenyl)-3-(3-(trifluoromethyl)phenyl)urea]
Cc1ccc(NC(=O)c2ccc(Cl)c(C(F)(F)F)c2)cc1C(=O)Nc1cnc(Nc2ccc(N3CCN(C)CC3)cc2)nc1 [Example 113, 4-chloro-N-(4-methyl-3-(((2-((4-(4-methyl-1-piperazinyl)phenyl)amino)-5-pyrimidinyl)amino)carbonyl)phenyl)-3-(trifluoromethyl) benzamide]

biological target: T2, Lck kinase enzyme (Homo sapiens, UniProt P06239); test: LCK-Homogeneous Time Resolved Fluorescent (HTRF) Kinase Assay; format: biochemical; settings: read-out: average IC50 value for the inhibition of the Lck kinase enzyme
T2 construct: LCK KD GST (225-509); GST
Experimental: LCK-Homogeneous Time Resolved Fluorescent (HTRF) Kinase Assay:
The LCK HTRF assay begins with LCK in the presence of ATP phosphorylating the biotinylated peptide Gastrin. The reaction incubates for 90 min. To quench the assay detection reagents are added which both stop the reaction by diluting out the enzyme and chelating the metals due to the presence of EDTA. Once the detection reagents are added the assay incubates for 30 min to allow for equilibration of the detection reagents. […] Buffer conditions are as follows: 50 mM HEPES pH 7.5, 50 mM NaCl, 20 mM MgCl, 5 mM MnCl, 2 mM DTT, 0.05% BSA.
The assay is quenched and stopped with 160 μL of detection reagent. Detection reagents are as follows: Buffer made of 50 mM Tris, pH 7.5, 100 mM NaCl, 3 mM EDTA, 0.05% BSA, 0.1% Tween20.
The assay plate is read in either a Discovery or a RubyStar.

T2 sequence (P06239 225-509): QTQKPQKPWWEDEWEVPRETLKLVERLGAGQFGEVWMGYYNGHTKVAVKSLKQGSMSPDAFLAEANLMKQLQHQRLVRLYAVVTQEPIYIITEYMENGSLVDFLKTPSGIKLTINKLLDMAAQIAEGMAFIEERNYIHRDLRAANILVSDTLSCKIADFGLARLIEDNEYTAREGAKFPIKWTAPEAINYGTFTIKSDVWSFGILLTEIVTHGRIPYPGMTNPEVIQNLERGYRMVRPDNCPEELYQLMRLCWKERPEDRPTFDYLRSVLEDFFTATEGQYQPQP

pIC50, ≥ 5.00:
Cc1ccc(NC(=O)c2cc3ccccc3n2C)cc1C(=O)Nc1cnc(Nc2ccc(N3CCN(C)CC3)cc2)nc1 [Example 96, 1-methyl-N-(4-methyl-3-((2-(4-(4-methylpiperazin-1-yl)phenylamino)pyrimidin-5-yl)carbamoyl)phenyl)-1H-indole-2-carboxamide]
Cc1ccc(NC(=O)Nc2cccc(C(F)(F)F)c2)cc1C(=O)Nc1cncnc1 [Example 88, 1-(4-methyl-3-(pyrimidin-5-ylcarbamoyl)phenyl)-3-(3-(trifluoromethyl)phenyl)urea]
